Paper PMC4749844, “Investigation of Calcium Channel Blockers as Antiprotozoal Agents and Their Interference in the Metabolism of Leishmania (L.) infantum” (Evidence-based Complementary and Alternative Medicine : eCAM, 2016)
Where two headings read alike, the source gives them in different places.

What was measured:
[1] = tested on: L. (L.) infantum promastigotes; experiment: Mitochondrial membrane potential, MitoTracker Red; type: cell-based, Leishmania (L.) infantum; settings: for reduction of MitoTracker Red fluorescence levels relative to untreated parasites: 20 μM, 60 minutes, p < 0.05
Experimental: L. […] Then MitoTracker® Red CM-H2XROS (500 nM) was added and the incubation was continued for 40 minutes in the dark. […] Nitazoxanide (60 μg/mL) was used as a positive control and untreated promastigotes were used as negative control.

[2] = tested on: L. (L.) infantum promastigotes; experiment: Reactive oxygen species (ROS), H2DCF-DA; type: cell-based, Leishmania (L.) infantum; settings: for regulation of ROS content compared to untreated parasites: amlodipine, fendiline 20 μM, 60 minutes
Experimental: L. (L.) infantum promastigotes (2 × 10^6 cells/well) were washed in HBSS medium and incubated with amlodipine or fendiline (20 μM) for 60 minutes at 24°C. To these cells 2′,7′-dichlorodihydrofluorescein diacetate (H2DCf-DA) was added (5 μM) and incubation was prolonged for 15 minutes. […] Nitazoxanide (60 μg/mL) was used as positive control and untreated promastigotes were used as negative control.

[3] = tested on: L. (L.) infantum promastigotes; settings: not told
Experimental: L. (L.) infantum promastigotes were washed with PBS, deposited on a 96-well microplate (2 × 10^6 parasites/well) and incubated with SYTOX® Green (1 μM) for 15 minutes at 24°C [10]. Amlodipine and fendiline were added at 20 μM and the fluorescence was measured up to 60 minutes. The fluorescence intensity was determined using a fluorimetric microplate reader (FilterMax F5 Multi-Mode Microplate Reader-Molecular Devices) with excitation and emission wavelengths of 485 and 520 nm, respectively. Triton X-100 (0.1%) was used as positive control and untreated promastigotes were used as negative control.

T. cruzi trypomastigotes = experiment: Antitrypanosomal activity, MTT assay; type: cell-based, Trypanosoma cruzi; settings: for IC50 / IC50 ± SD, T. cruzi trypomastigotes: 24 hours at 37°C, highest concentration 100 μM; for IC50: read-out: IC50 ± SD, T. cruzi trypomastigotes; for Selectivity Index (SI), T. cruzi trypomastigotes: ratio between cytotoxicity to LLC-MK2 cells and antiparasitic activity
Experimental: (§1) Promastigotes of L. (L.) amazonensis (WHO/BR/00/LT0016), L. (V.) braziliensis (MHO/BR/75/M2903), and L. (L.) infantum (MHOM/BR/1972/LD) [synonymous with L. (L.) chagasi] were maintained in M199 medium supplemented with 10% calf serum and 0.25% hemin at 24°C. L. (L.) infantum amastigotes were obtained from the spleen of infected hamster by differential centrifugation at the 60–70th days after infection. Macrophages were collected from the peritoneal cavity of BALB/c mice by washing with RPMI-1640 medium supplemented with 10% fetal calf serum and were maintained at 37°C in a 5% CO2 humidified incubator. Trypanosoma cruzi trypomastigotes (Y strain) were maintained in LLC-MK2 (ATCC CCL 7) cells using RPMI-1640 medium supplemented with 2% calf serum at 37°C in a 5% CO2 humidified incubator.
To determine the IC50 against T. cruzi trypomastigotes, drugs were dissolved in DMSO and diluted with RPMI-1460 medium in 96-well microplates, with the highest concentration at 100 μM. Trypomastigotes obtained from LLC-MK2 cultures were counted in a Neubauer hemocytometer and seeded at 1 × 10^6 parasites/well in 96-well microplates. Test drugs were incubated for 24 hours at 37°C in a 5% CO2 humidified incubator and the viability of trypomastigotes was verified by the MTT assay as described above. Benznidazole was used as a standard drug.

[4] = Cytotoxicity in mammalian cells, MTT assay; type: cell-based; settings: rhesus monkey, LLC-MK2 cells; 48 hours at 37°C; read-out: IC50 ± SD, LLC-MK2 cytotoxicity
Experimental: LLC-MK2 were seeded at 5 × 10^4 cells/well in 96-well microplates and incubated with drugs with 200 μM as the highest concentration, for 48 hours at 37°C in a 5% CO2 humidified incubator. The viability of the cells was determined by the MTT assay as described above. Control cells were incubated in the presence of DMSO and without drugs. Viability of 100% was expressed based on the optical density of control LLC-MK2 cells, after normalization. The Selectivity Index (SI) was given by the ratio between the cytotoxicity in LLC-MK2 cells and the antiparasitic activity.

L. (L.) amazonensis = tested on: L. (L.) amazonensis; design: method as in PMID 9501844; settings: read-out: IC50 against L. (L.) amazonensis; cited from earlier work
L. (L.) major = tested on: L. (L.) major; design: method as in PMID 9501844; settings: read-out: IC50 against L. (L.) major; cited from earlier work
[5] = tested on: L. (L.) infantum promastigotes; experiment: Antileishmanial activity against promastigotes, MTT assay; type: cell-based, Leishmania (L.) infantum; settings: 24 hours at 24°C, highest concentration 100 μM; for IC50: Leishmania infantum, read-out: IC50 ± SD, L. (L.) infantum promastigotes
Experimental: as §1
(§2) To determine the 50% inhibitory concentration (IC50) against Leishmania promastigotes, the drugs were dissolved in DMSO and diluted with M199 medium in 96-well microplates, with 100 μM as the highest concentration. Each drug was tested twice at eight concentrations prepared in twofold dilutions. Promastigotes were counted in a Neubauer hemocytometer and seeded at 1 × 10^6 parasites/well with a final volume of 150 μL. Controls with DMSO and without drugs were performed. Pentamidine was used as a standard drug. The plate was incubated for 24 hours at 24°C and the viability of promastigotes was verified by the MTT assay. Briefly, MTT (5 mg/mL) was dissolved in PBS, sterilized through 0.22 μm membrane and 20 μL/well was added, for 4 hours at 24°C. Promastigotes were incubated without compounds and used as a viability control. Formazan extraction was performed using 10% SDS for 18 hours (80 μL/well) at 24°C, and the optical density was determined in a Multiskan MS (UNISCIENCE) plate reader at 550 nm. The 100% viability was expressed based on the optical density of control promastigotes, after normalization. […] Plates were incubated at 37°C in a 5% CO2 humidified incubator for 24 hours. L. (L.) infantum amastigotes extracted from spleens and separated by differential centrifugation were added to macrophages at a ratio of 10 : 1 (amastigotes : macrophage). After 24 hours, extracellular parasites were removed by washing, fresh medium containing the drugs and controls was added, and the cells were incubated at 37°C for a period of 120 hours. Further medium changes with fresh drugs were carried out after 72 hours. At the end of the assay, the slides were stained with Giemsa and observed using light microscopy. Glucantime was used as a standard drug. The IC50 was determined by the number of infected macrophages in 400 cells.

[6] = tested on: L. (L.) infantum intracellular amastigotes; experiment: Activity against intracellular amastigotes in peritoneal macrophages, Giemsa staining and light microscopy; type: cell-based, Leishmania (L.) infantum; settings: for IC50 ± SD, L. (L.) infantum amastigotes / IC50: intracellular amastigotes in BALB/c peritoneal macrophages, 120 hours; for IC50: read-out: IC50 ± SD, L. (L.) infantum amastigotes; for Selectivity Index (SI), L. (L.) infantum amastigotes: ratio between cytotoxicity to LLC-MK2 cells and antiparasitic activity
Experimental: as §1, §2

[7] = tested on: L. (L.) amazonensis promastigotes; experiment: Antileishmanial activity against promastigotes, MTT assay; type: cell-based, Leishmania (L.) amazonensis; settings: 24 hours at 24°C, highest concentration 100 μM; for IC50: Leishmania amazonensis, read-out: IC50 ± SD, L. (L.) amazonensis promastigotes
Experimental: as §1, §2

[8] = tested on: L. (V.) braziliensis promastigotes; experiment: as above; type: cell-based, Leishmania (V.) braziliensis; settings: 24 hours at 24°C, highest concentration 100 μM; for IC50: Leishmania, read-out: IC50 ± SD, L. (V.) braziliensis promastigotes
Experimental: as §1, §2

[9] = tested on: Leishmania spp. promastigotes; experiment: Antileishmanial activity against promastigotes of all species tested, MTT assay; type: cell-based; settings: range over the Leishmania species tested
Experimental: as §1
To determine the 50% inhibitory concentration (IC50) against Leishmania promastigotes, the drugs were dissolved in DMSO and diluted with M199 medium in 96-well microplates, with 100 μM as the highest concentration. Each drug was tested twice at eight concentrations prepared in twofold dilutions. Promastigotes were counted in a Neubauer hemocytometer and seeded at 1 × 10^6 parasites/well with a final volume of 150 μL. Controls with DMSO and without drugs were performed. Pentamidine was used as a standard drug. […]

T. cruzi epimastigotes = tested on: T. cruzi epimastigotes; design: method as in PMID 9457486; settings: in vitro; read-out: IC50 against T. cruzi epimastigotes; cited from earlier work
[10] = Leishmania infantum, Peritoneal macrophage, in Mus musculus, 120 h

Compound: CCOC(=O)C1=C(COCCN)NC(C)=C(C(=O)OC)C1c1ccccc1Cl (stereo not drawn) [Amlodipine, amlodipine]
- reduction of MitoTracker Red fluorescence levels relative to untreated parasites [1]: 7%
- ROS levels, fold higher compared to fendiline ([2]; 20 μM): ~3 fold
- upregulation of ROS, fold higher than nitazoxanide ([2]; amlodipine 20 μM, nitazoxanide 60 μg/mL): 1.99 fold
- regulation of ROS content compared to untreated parasites ([2]; nitazoxanide 60 μg/mL): intense and significant (p < 0.05) upregulation of ROS content
- plasma membrane permeability (SYTOX Green fluorescence) [3]: no interference on the plasma membrane permeability

Compound: O=C(Cn1ccnc1[N+](=O)[O-])NCc1ccccc1 [Benznidazole]
- IC50 (T. cruzi trypomastigotes): 440 ± 39.1 µM
- IC50 (T. cruzi trypomastigotes; Trypanosoma cruzi, 24 h): 440 µM
- IC50 at 48 h [4]: > 500 µM

Compound: Triton X-100
- plasma membrane permeability (SYTOX Green fluorescence) [3]: fully permeabilized parasites

Compound: Nc1ccncc1 [4-aminopyridine]
- IC50 (L. (L.) amazonensis): 46 µM
- IC50 (L. (L.) major): > 400 µM

Compound: Nc1cc(-c2ccncc2)c[nH]c1=O [Amrinone]
- IC50 ± SD, L. (L.) infantum promastigotes [5]: ne^b
- IC50 ± SD, L. (L.) infantum amastigotes [6]: ne^b
- IC50 ± SD, L. (L.) amazonensis promastigotes [7]: ne^b
- IC50 ± SD, L. (V.) braziliensis promastigotes [8]: ne^b
- IC50 ± SD, T. cruzi trypomastigotes (T. cruzi trypomastigotes): ne^b
- IC50 ± SD, T. cruzi trypomastigotes (T. cruzi trypomastigotes; listed as amrinone): inactive
- IC50 at 48 h [4]: > 500 µM
- IC50 [9]: > 100 µM

Compound: CC(NCCC(c1ccccc1)c1ccccc1)c1ccccc1 (stereo not drawn) [Fendiline, fendiline]
- IC50 [5]: 16.1 ± 4.2 µM
- IC50 [6, 10]: 12 to 16 µM
- IC50 [6]: 12.2 ± 1.74 µM
- Selectivity Index (SI), L. (L.) infantum amastigotes [6]: 4.09
- IC50 [7]: 8.66 ± 1.27 µM
- IC50 [8]: 9.15 ± 0.78 µM
- IC50 (T. cruzi trypomastigotes; Trypanosoma cruzi, 24 h): 12.1 ± 2.97 µM
- Selectivity Index (SI), T. cruzi trypomastigotes (T. cruzi trypomastigotes): 4.11
- IC50 at 48 h [4]: 49.9 ± 8.16 µM
- reduction of MitoTracker Red fluorescence levels relative to untreated parasites [1]: 18%
- regulation of ROS content compared to untreated parasites ([2]; nitazoxanide 60 μg/mL): intense and significant (p < 0.05) upregulation of ROS content
- plasma membrane permeability (SYTOX Green fluorescence) [3]: no interference on the plasma membrane permeability

Compound: COC(=O)C1=C(C)NC(C)=C(C(=O)OC(C)C)C1c1cccc2nonc12 (stereo not drawn) [isradipine]
- IC50 (T. cruzi epimastigotes): 20 µM

Compound: Cc1cccc(C)c1NC(=O)CN1CCN(CCCC(c2ccc(F)cc2)c2ccc(F)cc2)CC1 [Lidoflazine, lidoflazine]
- IC50 [5]: 17.7 ± 0.93 µM
- IC50 [6, 10]: 12 to 16 µM
- IC50 [6]: 16.3 ± 4.45 µM
- Selectivity Index (SI), L. (L.) infantum amastigotes [6]: 6.54
- IC50 [7]: 11.5 ± 1.49 µM
- IC50 [8]: 14.5 ± 1.08 µM
- IC50 (T. cruzi trypomastigotes; Trypanosoma cruzi, 24 h): 10.4 ± 1.87 µM
- Selectivity Index (SI), T. cruzi trypomastigotes (T. cruzi trypomastigotes): 10.25
- IC50 at 48 h [4]: 107 ± 58 µM

Compound: CCOC(=O)C1=C(C)NC(C)=C(C(=O)OCC)C1c1ccccc1/C=C/C(=O)OC(C)(C)C [lacidipine]
- IC50 (T. cruzi epimastigotes): 33 µM

Compound: N=C(N)c1ccc(OCCCCCOc2ccc(C(=N)N)cc2)cc1 [Pentamidine]
- IC50 [5]: 1.06 ± 0.12 µM
- IC50 [7]: 1.14 ± 0.15 µM
- IC50 [8]: 0.69 ± 0.04 µM
- IC50 at 48 h [4]: 23.5 ± 3.53 µM
- IC50 [9]: 0.69 to 1.14 µM

Compound: COCC(=O)O[C@]1(CCN(C)CCCc2nc3ccccc3[nH]2)CCc2cc(F)ccc2[C@@H]1C(C)C [Mibefradil, mibefradil]
- IC50 [5]: 3.6 ± 0.11 µM
- IC50 ± SD, L. (L.) infantum amastigotes [6]: ne^b
- IC50 ± SD, L. (L.) infantum amastigotes ([6]; listed as mibefradil): lack of activity
- IC50 [7]: 2.23 ± 0.42 µM
- IC50 [8]: 2.75 ± 0.39 µM
- IC50 (T. cruzi trypomastigotes; Trypanosoma cruzi, 24 h): 2.99 ± 0.43 µM
- Selectivity Index (SI), T. cruzi trypomastigotes (T. cruzi trypomastigotes): 4.01
- IC50 at 48 h [4]: 12 ± 1.03 µM

Compound: CC(=O)Oc1ccccc1C(=O)Nc1ncc([N+](=O)[O-])s1 [Nitazoxanide]
- effect on mitochondrial membrane potential (fluorescence intensity) ([1]; nitazoxanide 60 μg/mL, positive control): strong reduction of fluorescence intensity
- regulation of ROS content compared to untreated parasites ([2]; nitazoxanide 60 μg/mL): significant upregulation of ROS
